In brackets after ≈: the same amount, converted by molar mass.
Key:
[1] = tested on: Bacillus cereus ATCC 10702 NCTC 8035; experiment: Antimicrobial activity, serial dilution technique in Mueller–Hinton Broth 2; type: cell-based; conditions: average of three ± SD, - means non-active; for MBC / MIC: Bacillus cereus, Bc; for MBC: read-out: Minimum Bactericidal and Fungicidal Concentration (MBC, MFC), Bc; for MIC: read-out: Minimum Inhibitory Concentration (MIC), Bc
Experimental: (§1) The synthesized compounds were tested for antimicrobial activity against a number of Gram-positive bacteria, Staphylococcus aureus (Sa), Bacillus cereus (Bc) and Enterococcus faecalis (Ef), and Gram-negative bacteria, Escherichia coli (Ec) and Pseudomonas aeruginosa (Pa), including the methicillin-resistant strains S. aureus MRSA-1 (resistant to fluoroquinolones and beta-lactams) and MRSA-2 (resistant to beta-lactams). The methicillin-resistant strains S. aureus were transferred by the Republican Clinical Hospital of the Republic of Tatarstan (Kazan). The fungicidal activity against Candida albicans (Ca) and Trichophyton mentagrophytes var. gypseum (Tm) was studied. These pathogens were chosen because they are the most widespread in the food industry and the healthcare system.
(§2) The antimicrobial activity of the QPSs was determined using the serial dilution technique in Mueller–Hinton Broth 2. The cultures used for testing included the Gram-positive bacteria Staphylococcus aureus ATCC 6538P FDA 209P, Enterococcus faecalis ATCC 2921 and Bacillus cereus ATCC 10702 NCTC 8035, the Gram-negative bacteria Escherichia coli ATCC 25922 and Pseudomonas aeruginosa ATCC 9027, and the fungi Trichophyton mentagrophytes var. gypseum 1773 and Candida albicans ATCC 10231; methicillin-resistant strains of S. aureus MRSA were obtained from hospital patients with chronic tonsillitis (MRSA-1) and sinusitis (MRSA-2) in the Republican Clinical Hospital (Kazan, Russia). […] The bacterial load was 3.0 × 10^5 cfu/mL. The results were recorded every 24 h for 5 days. The cultures were incubated at 37 °C. The experiment was repeated three times. […] The minimum inhibitory concentration (MIC) was defined as the minimum concentration of a compound that inhibits the growth of the corresponding test micro-organism. The growth of bacteria as well as the absence of growth due to the bacteriostatic action of a compound was recorded.

[2] = tested on: Enterococcus faecalis ATCC 2921; experiment: as above; type: cell-based; conditions: average of three ± SD, - means non-active; for MBC / MIC: Enterococcus faecalis, ATCC2921, Ef; for MBC: read-out: Minimum Bactericidal and Fungicidal Concentration (MBC, MFC), Ef; for MIC: read-out: Minimum Inhibitory Concentration (MIC), Ef
Experimental: as §1, §2

[3] = tested on: Escherichia coli ATCC 25922; experiment: as above; type: cell-based; conditions: average of three ± SD, - means non-active
Experimental: as §1, §2

[4] = tested on: Pseudomonas aeruginosa ATCC 9027; experiment: as above; type: cell-based; conditions: average of three ± SD, - means non-active
Experimental: as §1, §2

[5] = tested on: Staphylococcus aureus ATCC 6538P FDA 209P; experiment: as above; type: cell-based; conditions: average of three ± SD, - means non-active; for MIC: read-out: Minimum Inhibitory Concentration (MIC), Sa
Experimental: as §1, §2

[6] = tested on: methicillin-resistant S. aureus MRSA-1; experiment: as above; type: cell-based, Staphylococcus aureus; conditions: - means non-active; for Minimum Inhibitory Concentration (MIC), MRSA-1 / MIC: MRSA-1 (resistant to fluoroquinolones and beta-lactams); for MIC: read-out: Minimum Inhibitory Concentration (MIC), MRSA-1
Experimental: as §1, §2

[7] = tested on: methicillin-resistant S. aureus MRSA-2; experiment: as above; type: cell-based, Staphylococcus aureus; conditions: - means non-active; for Minimum Inhibitory Concentration (MIC), MRSA-2 / MIC: MRSA-2 (resistant to beta-lactams); for MIC: read-out: Minimum Inhibitory Concentration (MIC), MRSA-2
Experimental: as §1, §2

[8] = tested on: Candida albicans ATCC 10231; experiment: Fungicidal activity, serial dilution technique; type: cell-based; conditions: average of three ± SD, - means non-active; for MBC / MIC / MFC: Candida albicans, ATCC10231, Ca; for MBC / MFC: read-out: Minimum Bactericidal and Fungicidal Concentration (MBC, MFC), Ca; for MIC: read-out: Minimum Inhibitory Concentration (MIC), Ca
Experimental: as §1
(§3) The antimicrobial activity of the QPSs was determined using the serial dilution technique in Mueller–Hinton Broth 2. The cultures used for testing included the Gram-positive bacteria Staphylococcus aureus ATCC 6538P FDA 209P, Enterococcus faecalis ATCC 2921 and Bacillus cereus ATCC 10702 NCTC 8035, the Gram-negative bacteria Escherichia coli ATCC 25922 and Pseudomonas aeruginosa ATCC 9027, and the fungi Trichophyton mentagrophytes var. gypseum 1773 and Candida albicans ATCC 10231; methicillin-resistant strains of S. aureus MRSA were obtained from hospital patients with chronic tonsillitis (MRSA-1) and sinusitis (MRSA-2) in the Republican Clinical Hospital (Kazan, Russia). Ciprofloxacin and ketoconazole were purchased from Sigma-Aldrich. The bacterial load was 3.0 × 10^5 cfu/mL. The results were recorded every 24 h for 5 days. The cultures were incubated at 37 °C. The experiment was repeated three times. […] The minimum inhibitory concentration (MIC) was defined as the minimum concentration of a compound that inhibits the growth of the corresponding test micro-organism. The growth of bacteria as well as the absence of growth due to the bacteriostatic action of a compound was recorded.

[9] = tested on: Trichophyton mentagrophytes var. gypseum 1773; experiment: Fungicidal activity, serial dilution technique; type: cell-based; conditions: for Minimum Bactericidal and Fungicidal Concentration (MBC, MFC), Tm / Minimum Inhibitory Concentration (MIC), Tm: average of three ± SD, - means non-active
Experimental: as §1, §3

[10] = tested on: Escherichia coli ATCC 25922; experiment: Antimicrobial activity, serial dilution technique in Mueller–Hinton Broth 2; type: cell-based; conditions: average of three ± SD, - means non-active; for MBC: Escherichia coli, ATCC25922, Ec, read-out: Minimum Bactericidal and Fungicidal Concentration (MBC, MFC), Ec
[11] = Trichophyton mentagrophytes, read-out: Minimum Bactericidal and Fungicidal Concentration (MBC, MFC), Tm

Row | Compound | Minimum Bactericidal and Fungicidal Concentration (MBC, MFC), Bc [1] | Minimum Inhibitory Concentration (MIC), Bc [1] | Minimum Bactericidal and Fungicidal Concentration (MBC, MFC), Ef [2] | Minimum Inhibitory Concentration (MIC), Ef [2] | Minimum Inhibitory Concentration (MIC), Ec [3] | Minimum Inhibitory Concentration (MIC), Pa [4] | Minimum Bactericidal and Fungicidal Concentration (MBC, MFC), Sa [5] | Minimum Inhibitory Concentration (MIC), Sa [5] | Minimum Inhibitory Concentration (MIC), MRSA-1 [6] | Minimum Bactericidal and Fungicidal Concentration (MBC, MFC), MRSA-1 ([6]; MRSA-1) | Minimum Inhibitory Concentration (MIC), MRSA-2 [7] | Minimum Bactericidal and Fungicidal Concentration (MBC, MFC), MRSA-2 ([7]; MRSA-2) | Minimum Inhibitory Concentration (MIC), Ca [8] | Minimum Bactericidal and Fungicidal Concentration (MBC, MFC), Tm [9] | Minimum Inhibitory Concentration (MIC), Tm [9] | MIC [1] | MIC [2] | MIC ([5]; Staphylococcus aureus, Sa) | MIC ([7]; Staphylococcus aureus, MRSA) | MBC [8] | further results
1 | CCCCCCCCCCCCC[P+](C(C)(C)C)(C(C)(C)C)C(C)(C)C [Compound 13b] | 31.3 ± 2.3 µg/mL | 0.5 ± 0.04 µg/mL | 3.9 ± 0.3 µg/mL | 1.9 ± 0.1 µg/mL | 7.8 ± 0.6 µg/mL | 31.3 ± 2.3 µg/mL | 0.2 ± 0.01 µg/mL | 0.2 ± 0.01 µg/mL | 0.3 ± 0.02 µg/mL | 0.5 ± 0.03 µg/mL | 0.3 ± 0.01 µg/mL | 3.9 ± 0.3 µg/mL | 7.8 ± 0.5 µg/mL | 62.5 ± 5.3 µg/mL | 62.5 ± 5.2 µg/mL | – | – | – | – | – | Minimum Bactericidal and Fungicidal Concentration (MBC, MFC), Pa [4]: 31.3 ± 2.2 µg/mL; Minimum Bactericidal and Fungicidal Concentration (MBC, MFC), Ca [8]: 7.8 ± 0.6 µg/mL; Minimum Bactericidal and Fungicidal Concentration (MBC, MFC), Ec [10]: 7.8 ± 0.6 µg/mL
2 | CCCCCCCCCCC[P+](C(C)(C)C)(C(C)(C)C)C(C)(C)C [Compound 11a] | – | – | – | – | – | – | 1.9 ± 0.1 µg/mL | – | 1.9 ± 0.1 µg/mL | 1.9 ± 0.1 µg/mL | – | 7.8 ± 0.6 µg/mL | – | 31.3 ± 2.5 µg/mL | 31.3 ± 2.5 µg/mL | 1.9 ± 0.1 µg/mL | 7.8 ± 0.5 µg/mL | 0.9 ± 0.07 µg/mL | 0.9 ± 0.08 µg/mL | 62.5 ± 5.7 µg/mL | MBC [1]: 125 ± 10 µg/mL; MBC [2]: 7.8 ± 0.6 µg/mL; MIC ([3]; Escherichia coli, ATCC25922, Ec, read-out: Minimum Inhibitory Concentration (MIC), Ec): 31.3 ± 2.6 µg/mL; MIC [8]: 62.5 ± 5.5 µg/mL; MBC [10]: 31.3 ± 2.3 µg/mL
3 | CCCCCCCCCCCCCCCC[P+](C(C)(C)C)(C(C)(C)C)C(C)(C)C [Compound 16a] | – | – | – | – | 0.9 ± 0.07 µg/mL | 31.3 ± 2.7 µg/mL | – | – | – | – | – | – | 1.9 ± 0.1 µg/mL | – | – | 1.9 ± 0.1 µg/mL | 0.5 ± 0.03 µg/mL | 0.5 ± 0.04 µg/mL | 0.5 ± 0.03 µg/mL | 3.9 ± 0.3 µg/mL | MBC [1]: 31.3 ± 2.2 µg/mL; MBC [2]: 0.5 ± 0.03 µg/mL; MBC ([4]; Pseudomonas aeruginosa, ATCC9027, Pa, read-out: Minimum Bactericidal and Fungicidal Concentration (MBC, MFC), Pa): 125 ± 9 µg/mL; MBC ([5]; Staphylococcus aureus, Sa, read-out: Minimum Bactericidal and Fungicidal Concentration (MBC, MFC), Sa): 0.5 ± 0.03 µg/mL; MIC ([6]; Staphylococcus aureus, MRSA): 1.9 ± 0.1 µg/mL; MBC ([6]; Staphylococcus aureus, MRSA, MRSA-1, read-out: Minimum Bactericidal and Fungicidal Concentration (MBC, MFC), MRSA-1): 7.8 ± 0.6 µg/mL; MBC ([7]; Staphylococcus aureus, MRSA, MRSA-2, read-out: Minimum Bactericidal and Fungicidal Concentration (MBC, MFC), MRSA-2): 7.8 ± 0.7 µg/mL; MBC [10]: 1.9 ± 0.1 µg/mL
4 | CC(=O)N1CCN(c2ccc(OCC3COC(Cn4ccnc4)(c4ccc(Cl)cc4Cl)O3)cc2)CC1 (stereo not shown) [Ketoconazole, reference compound] | – | – | – | – | – | – | – | – | – | – | – | – | 3.9 ± 0.3 µg/mL | – | 3.9 ± 0.2 µg/mL | – | – | – | – | 3.9 ± 0.3 µg/mL (≈ 7.34 µM) | MFC [8]: 3.9 ± 0.3 µg/mL (≈ 7.34 µM); MIC [8]: 3.9 ± 0.3 µg/mL (≈ 7.34 µM); MBC [9, 11]: 3.9 ± 0.2 µg/mL (≈ 7.34 µM); MFC [9, 11]: 3.9 ± 0.2 µg/mL (≈ 7.34 µM); MIC ([9]; Trichophyton mentagrophytes, read-out: Minimum Inhibitory Concentration (MIC), Tm): 3.9 ± 0.2 µg/mL (≈ 7.34 µM)
5 | CCCCCCCCCCCCCCCCC[P+](C(C)(C)C)(C(C)(C)C)C(C)(C)C [Compound 17b] | 15.6 ± 1.3 µg/mL | 1.9 ± 0.1 µg/mL | 3.9 ± 0.2 µg/mL | 0.5 ± 0.03 µg/mL | 15.6 ± 1.2 µg/mL | 7.8 ± 0.6 µg/mL | 0.5 ± 0.04 µg/mL | 0.5 ± 0.04 µg/mL | 1.9 ± 0.1 µg/mL | 1.9 ± 0.1 µg/mL | 1.9 ± 0.1 µg/mL | 1.9 ± 0.1 µg/mL | 1.9 ± 0.1 µg/mL | 125 ± 11 µg/mL | 125 ± 10 µg/mL | – | – | – | – | – | Minimum Bactericidal and Fungicidal Concentration (MBC, MFC), Pa [4]: 15.6 ± 1.3 µg/mL; MFC [8]: 7.8 ± 0.7 µg/mL
6 | CCCCCCCCCCC[P+](C(C)(C)C)(C(C)(C)C)C(C)(C)C [Compound 11b] | 125 ± 10 µg/mL | 1.9 ± 0.1 µg/mL | 15.6 ± 1.2 µg/mL | 7.8 ± 0.6 µg/mL | 62.5 ± 5.3 µg/mL | – | 3.9 ± 0.2 µg/mL | 0.9 ± 0.07 µg/mL | 0.3 ± 0.02 µg/mL | 0.5 ± 0.03 µg/mL | 0.5 ± 0.04 µg/mL | 0.9 ± 0.07 µg/mL | 31.3 ± 2.4 µg/mL | 125 ± 9 µg/mL | 125 ± 9 µg/mL | – | – | – | – | – | Minimum Bactericidal and Fungicidal Concentration (MBC, MFC), Ca [8]: 31.3 ± 2.1 µg/mL; Minimum Bactericidal and Fungicidal Concentration (MBC, MFC), Ec [10]: 62.5 ± 5.4 µg/mL
7 | O=C(O)c1cn(C2CC2)c2cc(N3CCNCC3)c(F)cc2c1=O [Ciprofloxacin, reference compound] | – | – | – | – | – | – | – | – | – | – | – | – | – | – | – | 0.5 ± 0.04 µg/mL (≈ 1.51 µM) | 3.9 ± 0.3 µg/mL (≈ 11.8 µM) | 0.5 ± 0.03 µg/mL (≈ 1.51 µM) | 0.9 ± 0.07 µg/mL (≈ 2.72 µM) | – | MIC ([4]; Pseudomonas aeruginosa, ATCC9027, Pa, read-out: Minimum Inhibitory Concentration (MIC), Pa): 0.5 ± 0.03 µg/mL (≈ 1.51 µM); MIC ([6]; Staphylococcus aureus, MRSA): 125 ± 11 µg/mL (≈ 377 µM)
